Values quoted from earlier work as cited in patent US11324822B2, “Combination of HDAC inhibitor and anti-PD-1 antibody for treatment of cancer” (priority 2015, dated 2022).

Key:
[1] = in vivo
histone acetylation = conditions: following the administration of entinostat

- half-life [1]: about 100 hours
SMILES: Nc1ccccc1NC(=O)c1ccc(CNC(=O)OCc2cccnc2)cc1 [Entinostat, N-(2-aminophenyl)-4-[N-(pyridine-3-yl)methoxycarbonylamino-methyl]-benzamide]
- changes in histone acetylation following administration (histone acetylation): persist for several weeks
